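Step 1: Grow cells in 96-well plates. Step 2: Expose to compound for 48 hours at 5 concentrations. Step 3: Interpolate endpoints linearly; if unreached, use highest concentration. TGI: total growth inhibition.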
How the values were obtained:
Assay in all cases: growth of human tumour cells (NCI), 48 h
HOP-92 NSCLC = test system: HOP-92 NSCLC
HT29 colon = test system: HT29 colon
SF-539 CNS = test system: SF-539 CNS
NCI-H23 lung = test system: NCI-H23 lung
HL-60(TB) leukemia = test system: HL-60(TB) leukemia
SNB-75 CNS = test system: SNB-75 CNS
LXFL 529 NSCLC = test system: LXFL 529 NSCLC
NCI-H226 lung = test system: NCI-H226 lung
HOP-62 NSCLC = test system: HOP-62 NSCLC
SN12C renal = test system: SN12C renal
SF-295 CNS = test system: SF-295 CNS
HCT-15 colon = test system: HCT-15 colon
OVCAR-5 ovarian = test system: OVCAR-5 ovarian
DMS 273 small cell lung = test system: DMS 273 small cell lung
NCI-H522 lung = test system: NCI-H522 lung
NCI-H460 lung = test system: NCI-H460 lung
M19-MEL melanoma = test system: M19-MEL melanoma
786-0 renal = test system: 786-0 renal
DLD-1 colon = test system: DLD-1 colon
DMS 114 small cell lung = test system: DMS 114 small cell lung
UACC-257 melanoma = test system: UACC-257 melanoma
RPMI-8226 leukemia = test system: RPMI-8226 leukemia
MOLT-4 leukemia = test system: MOLT-4 leukemia
SK-MEL-2 melanoma = test system: SK-MEL-2 melanoma
M14 melanoma = test system: M14 melanoma
HOP-18 NSCLC = test system: HOP-18 NSCLC
SK-OV-3 ovarian = test system: SK-OV-3 ovarian
COLO 205 colon = test system: COLO 205 colon
KM20L2 colon = test system: KM20L2 colon
K-562 leukemia = test system: K-562 leukemia
ACHN renal = test system: ACHN renal
UACC-62 melanoma = test system: UACC-62 melanoma
OVCAR-8 ovarian = test system: OVCAR-8 ovarian
OVCAR-4 ovarian = test system: OVCAR-4 ovarian
A549 NSCLC = test system: A549 NSCLC
EKVX NSCLC = test system: EKVX NSCLC
HCT-116 colon = test system: HCT-116 colon
KM12 colon = test system: KM12 colon
TK-10 renal = test system: TK-10 renal
SNB-78 CNS = test system: SNB-78 CNS
U251 CNS = test system: U251 CNS
MALME-3M melanoma = test system: MALME-3M melanoma
SW-620 colon = test system: SW-620 colon
SK-MEL-5 melanoma = test system: SK-MEL-5 melanoma
HCC-2998 colon = test system: HCC-2998 colon
SR leukemia = test system: SR leukemia
OVCAR-3 ovarian = test system: OVCAR-3 ovarian
IGROV1 ovarian = test system: IGROV1 ovarian
SK-MEL-28 melanoma = test system: SK-MEL-28 melanoma
UO-31 renal = test system: UO-31 renal
SF-268 CNS = test system: SF-268 CNS
CCRF-CEM leukemia = test system: CCRF-CEM leukemia
A498 renal = test system: A498 renal

Measured: TGI

COC(=O)C1CC(c2ccc(Cl)cc2)=NO1 (stereo not drawn)
> 100 µM: all assays above

Reference: PubChem BioAssay (NCI)
